From ChEMBL document CHEMBL1201862, “PubChem BioAssay data set” (2004)
Blank lines part the entries; values can stand above or below the molecule they belong to. Activity calls are given as the source filed them.

Legend:
[1] = Late stage counterscreen results from the probe development effort to identify activators of signal transducer and activator of transcription 1 (STAT1): luminescence-based cell-based dose response assay to identify cytotoxic compounds.; assay type: functional
[2] = molecular target: Voltage-gated inwardly rectifying potassium channel KCNH2 (Homo sapiens, UniProt Q12809); assay: hERG protection from proarrhythmic block, potency, dose response, cell-based, thallium flux (AID 2121); assay type: ADME
Chain of Voltage-gated inwardly rectifying potassium channel KCNH2 (Q12809 whole entry): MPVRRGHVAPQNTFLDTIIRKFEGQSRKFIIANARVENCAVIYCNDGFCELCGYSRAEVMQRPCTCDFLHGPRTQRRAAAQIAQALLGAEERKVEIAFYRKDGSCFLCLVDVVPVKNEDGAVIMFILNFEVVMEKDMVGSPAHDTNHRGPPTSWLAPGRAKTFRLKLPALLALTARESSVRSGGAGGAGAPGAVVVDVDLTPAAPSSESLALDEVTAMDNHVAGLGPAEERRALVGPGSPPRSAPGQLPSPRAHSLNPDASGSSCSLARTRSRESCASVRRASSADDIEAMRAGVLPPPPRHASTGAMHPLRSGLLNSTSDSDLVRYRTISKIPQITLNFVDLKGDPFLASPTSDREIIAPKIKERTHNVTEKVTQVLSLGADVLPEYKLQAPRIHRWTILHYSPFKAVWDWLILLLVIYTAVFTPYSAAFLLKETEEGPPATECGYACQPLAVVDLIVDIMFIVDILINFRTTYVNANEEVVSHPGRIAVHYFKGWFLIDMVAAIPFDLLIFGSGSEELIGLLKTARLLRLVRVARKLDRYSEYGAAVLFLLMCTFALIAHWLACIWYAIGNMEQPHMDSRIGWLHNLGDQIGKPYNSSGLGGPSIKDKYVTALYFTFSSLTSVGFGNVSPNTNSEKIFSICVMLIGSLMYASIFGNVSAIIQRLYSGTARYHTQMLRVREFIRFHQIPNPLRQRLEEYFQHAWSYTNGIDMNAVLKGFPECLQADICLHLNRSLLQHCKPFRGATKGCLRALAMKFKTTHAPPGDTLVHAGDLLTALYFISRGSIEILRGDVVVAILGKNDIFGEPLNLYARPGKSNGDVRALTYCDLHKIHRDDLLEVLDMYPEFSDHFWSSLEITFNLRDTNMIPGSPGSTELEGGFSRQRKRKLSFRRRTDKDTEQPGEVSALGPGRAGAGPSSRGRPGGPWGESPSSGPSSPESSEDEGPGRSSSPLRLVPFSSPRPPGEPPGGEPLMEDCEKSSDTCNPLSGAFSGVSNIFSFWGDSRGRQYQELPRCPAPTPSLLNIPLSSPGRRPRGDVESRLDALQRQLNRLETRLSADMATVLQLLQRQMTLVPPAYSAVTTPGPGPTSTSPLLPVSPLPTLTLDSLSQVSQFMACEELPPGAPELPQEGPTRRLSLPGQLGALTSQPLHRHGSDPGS

Procathepsin L = Procathepsin L (Homo sapiens, UniProt P07711); assay: cathepsin L inhibitors, dose response, counter-screen for M1/M17 aminopeptidase inhibitor project, biochemical, QFRET, 1536-well (AID 2214)
Chain of Procathepsin L (P07711 whole entry): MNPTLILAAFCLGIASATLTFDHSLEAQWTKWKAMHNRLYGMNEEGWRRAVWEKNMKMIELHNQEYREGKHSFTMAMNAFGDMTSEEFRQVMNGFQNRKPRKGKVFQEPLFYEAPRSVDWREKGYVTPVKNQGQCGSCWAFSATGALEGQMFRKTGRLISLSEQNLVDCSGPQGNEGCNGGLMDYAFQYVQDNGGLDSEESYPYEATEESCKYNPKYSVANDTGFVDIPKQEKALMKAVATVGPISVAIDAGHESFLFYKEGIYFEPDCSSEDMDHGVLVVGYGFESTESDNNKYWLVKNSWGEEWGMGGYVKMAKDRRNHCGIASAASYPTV

[3] = molecular target: T1, Corticotropin-releasing factor receptor 2/Corticotropin-releasing factor-binding protein (Homo sapiens, UniProt P24387+Q13324); assay: Dose Response confirmation of uHTS hits for small molecule antagonists of the CRF-binding protein and CRF-R2 receptor complex.; assay type: functional; details: read-out: IC50_Mean
T1 sequence (Q13324 whole entry): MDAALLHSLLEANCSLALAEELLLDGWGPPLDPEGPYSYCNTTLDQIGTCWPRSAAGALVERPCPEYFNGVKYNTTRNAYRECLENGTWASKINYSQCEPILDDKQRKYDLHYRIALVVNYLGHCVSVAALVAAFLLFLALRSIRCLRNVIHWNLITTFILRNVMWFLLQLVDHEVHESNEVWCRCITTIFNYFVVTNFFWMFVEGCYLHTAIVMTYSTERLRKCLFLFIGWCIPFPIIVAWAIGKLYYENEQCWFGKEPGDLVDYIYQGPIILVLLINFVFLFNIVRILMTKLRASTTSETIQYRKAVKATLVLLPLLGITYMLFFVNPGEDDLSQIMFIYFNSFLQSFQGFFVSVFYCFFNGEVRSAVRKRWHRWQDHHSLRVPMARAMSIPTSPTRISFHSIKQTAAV
T1 sequence (P24387 whole entry): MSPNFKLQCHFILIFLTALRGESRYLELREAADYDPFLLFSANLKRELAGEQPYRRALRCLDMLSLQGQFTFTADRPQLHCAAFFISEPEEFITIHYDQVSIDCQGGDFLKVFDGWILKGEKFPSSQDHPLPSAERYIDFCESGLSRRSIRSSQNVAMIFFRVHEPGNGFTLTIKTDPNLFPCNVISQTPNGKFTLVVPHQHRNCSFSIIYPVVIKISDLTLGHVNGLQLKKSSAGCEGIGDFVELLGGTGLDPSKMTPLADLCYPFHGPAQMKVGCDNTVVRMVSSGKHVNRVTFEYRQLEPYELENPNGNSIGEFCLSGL

[4] = molecular target: T1, Corticotropin-releasing factor receptor 2/Corticotropin-releasing factor-binding protein; assay: activators of CRF receptor 2 with binding protein – uHTS hits, confirmation (AID 602473); assay type: functional; details: read-out: EC50_Mean
Aspartyl aminopeptidase = Aspartyl aminopeptidase (Plasmodium falciparum 3D7, UniProt Q8I2J3); assay: Counterscreen for inhibitors of M1 and M17 aminopeptidases: QFRET-based biochemical high throughput dose response assay for inhibitors of the Plasmodium falciparum M18 Aspartyl Aminopeptidase (PFM18AAP). [Related PubChem assays: 1619 (Screening assay (M17LAP inhibitors).), 1445 (Screening assay (M1AAP inhibitors).)]
Chain of Aspartyl aminopeptidase (Q8I2J3 whole entry): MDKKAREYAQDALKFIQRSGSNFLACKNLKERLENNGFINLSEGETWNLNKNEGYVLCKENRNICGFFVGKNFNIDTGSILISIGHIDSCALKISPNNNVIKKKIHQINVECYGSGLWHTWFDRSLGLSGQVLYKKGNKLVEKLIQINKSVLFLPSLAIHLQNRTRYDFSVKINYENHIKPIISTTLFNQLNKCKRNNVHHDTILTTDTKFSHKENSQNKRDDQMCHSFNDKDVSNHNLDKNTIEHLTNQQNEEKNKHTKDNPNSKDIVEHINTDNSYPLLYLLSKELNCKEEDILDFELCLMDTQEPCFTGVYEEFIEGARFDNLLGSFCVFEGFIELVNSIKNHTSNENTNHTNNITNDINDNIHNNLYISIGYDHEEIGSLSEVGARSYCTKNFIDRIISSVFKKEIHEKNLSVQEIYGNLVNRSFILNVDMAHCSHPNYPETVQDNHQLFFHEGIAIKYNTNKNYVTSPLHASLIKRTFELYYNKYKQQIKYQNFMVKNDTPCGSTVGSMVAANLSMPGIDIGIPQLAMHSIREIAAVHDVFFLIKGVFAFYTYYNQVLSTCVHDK

[5] = molecular target: Peroxisome proliferator-activated receptor gamma/Nuclear receptor coactivator 1 (Homo sapiens, UniProt P37231); assay: TR-FRET dose response biochemical High Throughput Screening assay for agonists of the steroid receptor coactivator 1 (SRC-1) recruitment by the peroxisome proliferator-activated receptor gamma (PPAR gamma): non-selective agonists. [Related pubchem assays (depositor defined):AID1300, AID1808, AID504735, AID631]; assay type: protein assay
[6] = molecular target: Peroxisome proliferator-activated receptor gamma/Nuclear receptor coactivator 2 (Homo sapiens, UniProt P37231); assay: (§1) TR-FRET dose response biochemical High Throughput Screening assay for agonists of the steroid receptor coactivator 2 (SRC-2) recruitment by the peroxisome proliferator-activated receptor gamma (PPAR gamma): non-selective agonists. [Related pubchem assays: 1297, 1032 ]; assay type: functional
Chain of Peroxisome proliferator-activated receptor gamma/Nuclear receptor coactivator 2 (P37231 whole entry): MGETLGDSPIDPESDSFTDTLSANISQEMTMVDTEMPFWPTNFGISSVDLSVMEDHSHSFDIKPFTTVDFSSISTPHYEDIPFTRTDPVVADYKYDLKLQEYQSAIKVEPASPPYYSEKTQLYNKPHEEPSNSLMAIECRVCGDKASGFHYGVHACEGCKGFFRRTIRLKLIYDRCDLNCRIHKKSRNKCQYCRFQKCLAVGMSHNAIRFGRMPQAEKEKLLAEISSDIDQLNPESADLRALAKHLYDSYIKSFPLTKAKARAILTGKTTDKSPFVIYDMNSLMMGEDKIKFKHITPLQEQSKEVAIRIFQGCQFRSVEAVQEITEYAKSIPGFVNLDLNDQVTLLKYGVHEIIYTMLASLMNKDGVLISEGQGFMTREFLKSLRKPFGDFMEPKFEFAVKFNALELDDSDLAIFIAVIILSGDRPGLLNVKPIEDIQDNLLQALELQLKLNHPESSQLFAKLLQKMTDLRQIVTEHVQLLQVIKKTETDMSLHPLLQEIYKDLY
Chain of Peroxisome proliferator-activated receptor gamma/Nuclear receptor coactivator 2 (Q15596 whole entry, further chain): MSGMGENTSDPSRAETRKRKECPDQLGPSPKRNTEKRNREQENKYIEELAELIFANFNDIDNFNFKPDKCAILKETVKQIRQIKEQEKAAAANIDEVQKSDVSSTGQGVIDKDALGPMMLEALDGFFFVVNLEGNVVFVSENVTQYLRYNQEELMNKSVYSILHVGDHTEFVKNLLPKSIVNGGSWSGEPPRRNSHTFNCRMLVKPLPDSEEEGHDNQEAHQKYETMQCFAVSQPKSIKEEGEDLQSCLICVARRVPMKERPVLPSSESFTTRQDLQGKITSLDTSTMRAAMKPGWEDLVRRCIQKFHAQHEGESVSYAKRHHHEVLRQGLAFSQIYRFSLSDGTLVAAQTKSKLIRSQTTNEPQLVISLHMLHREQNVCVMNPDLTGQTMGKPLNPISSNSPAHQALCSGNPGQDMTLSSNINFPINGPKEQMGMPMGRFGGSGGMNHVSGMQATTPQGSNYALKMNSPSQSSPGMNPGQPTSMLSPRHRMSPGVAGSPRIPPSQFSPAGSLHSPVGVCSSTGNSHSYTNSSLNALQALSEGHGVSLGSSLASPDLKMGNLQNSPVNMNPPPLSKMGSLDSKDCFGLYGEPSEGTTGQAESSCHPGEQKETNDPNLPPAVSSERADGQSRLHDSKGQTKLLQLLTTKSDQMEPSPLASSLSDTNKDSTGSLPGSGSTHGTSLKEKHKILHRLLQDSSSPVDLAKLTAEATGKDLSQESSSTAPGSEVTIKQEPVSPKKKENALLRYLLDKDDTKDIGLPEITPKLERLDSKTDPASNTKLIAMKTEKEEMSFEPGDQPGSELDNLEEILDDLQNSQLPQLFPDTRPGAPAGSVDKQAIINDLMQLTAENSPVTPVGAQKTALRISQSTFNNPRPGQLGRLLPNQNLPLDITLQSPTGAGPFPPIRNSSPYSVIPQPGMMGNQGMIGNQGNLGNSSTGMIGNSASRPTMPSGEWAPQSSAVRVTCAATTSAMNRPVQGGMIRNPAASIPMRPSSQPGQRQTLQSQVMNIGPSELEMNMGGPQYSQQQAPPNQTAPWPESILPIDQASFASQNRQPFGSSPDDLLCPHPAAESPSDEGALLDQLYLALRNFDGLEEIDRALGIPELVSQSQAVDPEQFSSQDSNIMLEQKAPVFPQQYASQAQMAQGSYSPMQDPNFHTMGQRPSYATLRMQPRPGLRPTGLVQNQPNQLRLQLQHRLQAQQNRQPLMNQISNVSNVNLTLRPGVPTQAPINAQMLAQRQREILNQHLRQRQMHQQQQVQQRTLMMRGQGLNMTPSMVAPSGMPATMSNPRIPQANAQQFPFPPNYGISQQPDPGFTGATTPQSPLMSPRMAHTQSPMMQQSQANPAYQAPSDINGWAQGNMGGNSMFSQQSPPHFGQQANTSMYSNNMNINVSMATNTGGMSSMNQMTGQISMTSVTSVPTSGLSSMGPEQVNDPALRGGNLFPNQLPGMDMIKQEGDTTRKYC

Aminopeptidase N = molecular target: T2, Aminopeptidase N (Plasmodium falciparum FcB1/Columbia, UniProt O96935); assay: P. falciparum M1AAP inhibitors, biochemical, fluorogenic H-Leu-NHMec substrate, 1536-well (AID 1445); design: species or system Plasmodium falciparum 3D7, 3D7
T2 sequence (O96935 whole entry): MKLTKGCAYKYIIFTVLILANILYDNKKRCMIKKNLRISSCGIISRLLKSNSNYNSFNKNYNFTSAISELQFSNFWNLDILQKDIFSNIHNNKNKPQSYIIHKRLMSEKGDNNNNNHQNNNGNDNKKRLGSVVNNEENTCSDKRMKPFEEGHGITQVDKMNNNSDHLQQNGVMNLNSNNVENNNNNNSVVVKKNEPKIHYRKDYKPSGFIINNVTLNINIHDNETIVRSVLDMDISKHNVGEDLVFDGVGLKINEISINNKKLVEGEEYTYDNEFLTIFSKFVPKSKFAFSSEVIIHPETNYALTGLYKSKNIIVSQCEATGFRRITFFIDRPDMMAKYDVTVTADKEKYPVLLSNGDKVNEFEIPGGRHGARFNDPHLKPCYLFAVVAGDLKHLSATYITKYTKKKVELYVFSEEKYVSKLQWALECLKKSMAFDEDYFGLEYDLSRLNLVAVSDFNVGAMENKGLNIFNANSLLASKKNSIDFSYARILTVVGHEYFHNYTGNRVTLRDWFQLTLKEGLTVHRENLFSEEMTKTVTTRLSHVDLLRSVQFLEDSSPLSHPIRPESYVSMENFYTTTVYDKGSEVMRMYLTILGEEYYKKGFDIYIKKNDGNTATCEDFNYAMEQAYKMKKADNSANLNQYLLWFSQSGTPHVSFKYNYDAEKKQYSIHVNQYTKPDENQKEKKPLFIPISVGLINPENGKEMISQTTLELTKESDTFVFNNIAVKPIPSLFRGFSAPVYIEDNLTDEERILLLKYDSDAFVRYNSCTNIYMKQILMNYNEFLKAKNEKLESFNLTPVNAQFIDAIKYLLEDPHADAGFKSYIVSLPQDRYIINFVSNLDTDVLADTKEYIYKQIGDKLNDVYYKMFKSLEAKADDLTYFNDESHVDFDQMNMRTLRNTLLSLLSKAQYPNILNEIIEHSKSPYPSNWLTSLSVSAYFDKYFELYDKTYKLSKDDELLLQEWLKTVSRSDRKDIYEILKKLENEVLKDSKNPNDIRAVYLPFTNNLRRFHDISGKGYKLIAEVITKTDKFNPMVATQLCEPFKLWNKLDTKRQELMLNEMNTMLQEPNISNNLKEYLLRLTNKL

[7] = molecular target: Peroxisome proliferator-activated receptor gamma/Nuclear receptor coactivator 3 (Homo sapiens, UniProt P37231); assay: as §1, with “3 (SRC-3)” for “2 (SRC-2)”, “1301 (Confirmation screen.), 1048 (Primary screen.)]” for “1297, 1032 ]”; assay type: functional
[8] = Luminescent dose response cell-based high throughput screening assay for inhibitors of the Janus kinase 2 mutant JAK2V617F. [Related pubchem assays: 1446 (Primary screen.), 1521 (Confirmation assay.), 1486 (Counter screen.)]; assay type: functional
[9] = molecular target: T3, Mannose-6-phosphate isomerase (Homo sapiens, UniProt P34949); assay: human PMI inhibitors, high substrate, primary screen, biochemical, fluorescence intensity, high mannose 6-phosphate (AID 1220)
T3 sequence (P34949 whole entry): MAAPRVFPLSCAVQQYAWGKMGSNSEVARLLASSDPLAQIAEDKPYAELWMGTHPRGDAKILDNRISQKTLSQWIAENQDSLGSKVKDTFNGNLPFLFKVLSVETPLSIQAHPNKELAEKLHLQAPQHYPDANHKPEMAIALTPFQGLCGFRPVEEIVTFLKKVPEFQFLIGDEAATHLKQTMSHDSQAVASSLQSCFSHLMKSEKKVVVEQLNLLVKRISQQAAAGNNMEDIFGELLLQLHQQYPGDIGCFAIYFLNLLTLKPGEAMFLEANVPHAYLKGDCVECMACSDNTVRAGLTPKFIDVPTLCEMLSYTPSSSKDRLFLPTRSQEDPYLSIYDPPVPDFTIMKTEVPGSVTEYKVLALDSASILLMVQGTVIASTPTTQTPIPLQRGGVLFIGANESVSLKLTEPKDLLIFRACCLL

[10] = molecular target: T4, Histone-lysine N-methyltransferase NSD2 (Homo sapiens, UniProt O96028); assay type: biochemical
T4 sequence (O96028 whole entry): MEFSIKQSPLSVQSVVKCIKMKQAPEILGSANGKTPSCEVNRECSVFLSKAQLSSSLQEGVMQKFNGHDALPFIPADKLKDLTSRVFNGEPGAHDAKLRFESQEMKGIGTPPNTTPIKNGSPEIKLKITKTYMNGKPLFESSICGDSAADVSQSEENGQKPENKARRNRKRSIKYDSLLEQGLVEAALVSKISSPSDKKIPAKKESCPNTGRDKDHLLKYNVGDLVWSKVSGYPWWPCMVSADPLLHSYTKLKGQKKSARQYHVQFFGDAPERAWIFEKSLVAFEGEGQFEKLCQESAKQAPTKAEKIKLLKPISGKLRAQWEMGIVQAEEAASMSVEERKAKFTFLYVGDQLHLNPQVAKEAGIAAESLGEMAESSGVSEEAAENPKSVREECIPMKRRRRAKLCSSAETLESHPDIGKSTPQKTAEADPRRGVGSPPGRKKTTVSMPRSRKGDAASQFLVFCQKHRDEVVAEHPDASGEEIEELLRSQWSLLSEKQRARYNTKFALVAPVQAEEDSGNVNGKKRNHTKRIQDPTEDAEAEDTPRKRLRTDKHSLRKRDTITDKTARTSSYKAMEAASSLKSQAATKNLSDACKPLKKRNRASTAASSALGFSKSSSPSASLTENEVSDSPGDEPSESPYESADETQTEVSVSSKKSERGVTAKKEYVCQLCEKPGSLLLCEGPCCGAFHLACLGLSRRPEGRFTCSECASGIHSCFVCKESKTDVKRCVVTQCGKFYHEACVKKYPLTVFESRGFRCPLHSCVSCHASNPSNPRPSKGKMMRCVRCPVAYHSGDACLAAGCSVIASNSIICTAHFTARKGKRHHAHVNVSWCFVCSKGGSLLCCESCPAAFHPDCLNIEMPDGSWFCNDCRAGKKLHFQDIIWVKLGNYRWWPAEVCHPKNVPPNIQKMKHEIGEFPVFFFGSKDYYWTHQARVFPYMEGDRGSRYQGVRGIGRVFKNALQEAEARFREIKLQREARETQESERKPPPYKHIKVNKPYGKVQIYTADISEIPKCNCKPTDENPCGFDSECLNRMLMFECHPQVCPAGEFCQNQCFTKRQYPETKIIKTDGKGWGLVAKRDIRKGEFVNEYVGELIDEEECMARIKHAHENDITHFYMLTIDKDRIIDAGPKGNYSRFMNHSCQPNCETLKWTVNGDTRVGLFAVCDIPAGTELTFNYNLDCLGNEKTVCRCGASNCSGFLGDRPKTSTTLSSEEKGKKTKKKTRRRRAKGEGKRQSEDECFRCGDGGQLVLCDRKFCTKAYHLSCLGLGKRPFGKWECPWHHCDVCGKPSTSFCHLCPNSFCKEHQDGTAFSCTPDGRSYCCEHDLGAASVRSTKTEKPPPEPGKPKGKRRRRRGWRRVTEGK

[11] = C. albicans growth with fluconazole, confirmation, fluorescence, retest (AID 2467); assay type: functional, cell-based
[12] = molecular target: Induced myeloid leukemia cell differentiation protein Mcl-1 (Homo sapiens, UniProt Q07820); assay type: functional
Chain of Induced myeloid leukemia cell differentiation protein Mcl-1 (Q07820 whole entry): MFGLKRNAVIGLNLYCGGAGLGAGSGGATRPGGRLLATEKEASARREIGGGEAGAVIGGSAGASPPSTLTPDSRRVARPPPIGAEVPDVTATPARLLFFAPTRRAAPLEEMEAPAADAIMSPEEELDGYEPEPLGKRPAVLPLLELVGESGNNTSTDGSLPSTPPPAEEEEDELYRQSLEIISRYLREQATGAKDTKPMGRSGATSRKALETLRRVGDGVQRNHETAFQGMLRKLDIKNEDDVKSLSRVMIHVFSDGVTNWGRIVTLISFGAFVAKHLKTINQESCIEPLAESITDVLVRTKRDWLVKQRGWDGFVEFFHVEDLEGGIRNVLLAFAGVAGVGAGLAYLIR

[13] = NIH-3T3 fibroblast cytotoxicity, dose response, cytotoxicity control, cell-based, fluorescence, Alamar Blue, secondary assay (AID 2327); assay type: functional;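 also: NIH-3T3 mouse fibroblasts cultured with fluconazole at 8 µg/mL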

Structure (SMILES): COc1ccc(-c2csc(N3C(=O)CNC3=S)n2)cc1
IC50 [1]: > 55.7 µM (not active)

Structure (SMILES): Cc1onc(-c2ccccc2)c1C(=O)NC(=S)Nc1sc2c(c1C#N)CCC(C)C2 (stereo unspecified)
EC50 [2]: 0.86 µM (active)

IC50 (Procathepsin L): 31.8 µM (not active)
IC50 [3]: < 0.368 µM (active)
EC50 [4]: > 53 µM (inactive)
IC50 (Aspartyl aminopeptidase): 39.5 µM (not active)
EC50 [5]: > 79.4 µM (inactive)
EC50 [6]: 41 µM (not active)
IC50 (Aminopeptidase N): 4.08 µM (active)
EC50 [7]: > 79.4 µM (not active)
Structure (SMILES): O=C1Nc2ccccc2/C1=C1/SC(=S)N(NC(=O)c2cccc(O)c2)C1=O

Structure (SMILES): Cc1c(Cc2ccccc2)c(=O)oc2c(O)c(O)ccc12
IC50 [8]: 2.67 µM (active)
IC50 [9]: 29.6 µM (active)
AC50 [10]: > 20 µM (inactive)
EC50 [11]: 2.73 µM (active)
IC50 [12]: 11.7 µM (not active)
EC50 [13]: 18.7 µM (active)
